Assays:
canarygrass = experiment: Test C postemergence test; assay type: in vivo, Phalaris minor; details: for Plant response rating, Canarygrass: scale 0 to 100, 0 no effect, 100 complete control
Protocol: (§1) At the same time, plants selected from these crop and weed species and also winter barley (Hordeum vulgare), canarygrass (Phalaris minor), and chickweed (Stellaria media) were treated with postemergence applications of some of the test chemicals formulated in the same manner. Plants ranged in height from 2 to 18 cm (1- to 4-leaf stage) for postemergence treatments. […] At time of treatment, test pots were flooded to 3 cm above the soil surface, treated by application of test compounds directly to the paddy water, and then maintained at that water depth for the duration of the test. Treated plants and controls were maintained in a greenhouse for 13 to 15 days, after which time all species were compared to controls and visually evaluated. […] A dash (-) response means no test result.

windgrass = experiment: Test C pre-/postemergence test; assay type: in vivo, Apera spica-venti; details: Postemergence; for Plant response rating, Windgrass: scale 0 to 100, 0 no effect, 100 complete control
Text: Seeds of plant species selected from blackgrass (Alopecurus myosuroides), downy brome (Bromus tectorum), green foxtail (Setaria viridis), Italian ryegrass (Lolium multiflorum), wheat (Triticum aestivum), wild oat (Avena fatua), catchweed bedstraw (Galium aparine), Russian thistle (Salsola kali), […] (Cynodon dactylon), Surinam grass (Brachiaria decumbens), cocklebur (Xanthium strumarium), corn (Zea mays), crabgrass (Digitaria sanguinalis), woolly cupgrass (Eriochloa villosa), giant foxtail (Setaria faberii), Goosegrass (Eleusin indica), johnsongrass (Sorghum halepense), kochia (Kochia scoparia), lambsquarters (Chenopodium album), morningglory (Ipomoea coccinea), eastern black nightshade (Solanum ptycanthum), yellow nutsedge (Cyperus esculentus), pigweed (Amaranthus retroflexus), common ragweed (Ambrosia elation), soybean (Glycine max), common (oilseed) sunflower (Helianthus annuus), and velvetleaf (Abutilon theophrasti) were planted and treated preemergence with test chemicals formulated in a non-phytotoxic solvent mixture which included a surfactant. At the same time, plants selected from these crop and weed species and also winter barley (Hordeum vulgare), canarygrass (Phalaris minor), and chickweed (Stellaria media) were treated with postemergence applications of some of the test chemicals formulated in the same manner. Plants ranged in height from 2 to 18 cm (1- to 4-leaf stage) for postemergence treatments. […] At time of treatment, test pots were flooded to 3 cm above the soil surface, treated by application of test compounds directly to the paddy water, and then maintained at that water depth for the duration of the test. […] A dash (-) response means no test result.

chickweed = experiment: Test C postemergence test; assay type: in vivo, Stellaria media; details: for Plant response rating, Chickweed: scale 0 to 100, 0 no effect, 100 complete control
Protocol: as §1

winter barley = experiment: Test C postemergence test; assay type: in vivo, Hordeum vulgare; details: for Plant response rating, Barley: scale 0 to 100, 0 no effect, 100 complete control
Protocol: as §1

guineagrass = experiment: Test F preemergence test; assay type: in vivo, Panicum maximum; details: scale 0 to 100
Text: (§2) Seeds of plant species selected from bermudagrass (Cynodon dactylon), Surinam grass (Brachiaria decumbens), large crabgrass (Digitaria sanguinalis), green foxtail (Setaria viridis), goosegrass (Eleusine indica), johnsongrass (Sorghum halepense), kochia (Kochia scoparia), pitted morningglory (Ipomoea lacunosa), purple nutsedge (Cyperus rotundus), common ragweed (Ambrosia elation), mustard (Brassica nigra), guineagrass (Panicum maximum), […] (Paspalum dilatatum), barnyardgrass (Echinochloa crus-galli), southern sandbur (Cenchrus echinatus), common sowthistle (Sonchus oleraceous), prickly […] spinosa), Italian ryegrass (Lolium multiflorum), common purslane (Portulaca oleracea), broadleaf signalgrass (Brachiaria platyphylla), common groundsel (Senecio vulgaris), common chickweed (Stellaria media), Virginia dayflower (Commelina virginica), annual bluegrass (Poa annua), naked crabgrass (Digitaria nuda), […] cochinchinensis), quackgrass (Elytrigia repens), Canada horseweed (Conyza canadensis), field bindweed (Convolvulus arvensis), […] (Bidens bipinnata), common mallow (Malva sylvestris), Russian thistle (Salsola kali), and sugarcane (Saccharum officinarum) were planted and treated preemergence with test chemicals formulated in a non-phytotoxic solvent mixture which included a surfactant. At a different time, sugarcane was treated with postemergence applications of some of the test chemicals formulated in the same manner. Plants were approximately 3- to 4-leaf stage for the postemergence treatments. Treated plants and controls were maintained in a greenhouse for 14 to 21 days, after which time all species were compared to controls and visually evaluated. […] A dash (-) response means no test result.

Canada horseweed = experiment: Test F preemergence test; assay type: in vivo, Conyza canadensis; details: scale 0 to 100
Text: as §2

common sowthistle = experiment: Test F preemergence test; assay type: in vivo, Sonchus oleraceous; details: scale 0 to 100
Text: as §2

SMILES	Plant response rating (0 to 100), Canarygrass (canarygrass; 31 g ai/ha)	Plant response rating, Canarygrass (canarygrass; 62 g ai/ha)	Plant response rating, Canarygrass (canarygrass; 125 g ai/ha)	Plant response rating, Canarygrass (canarygrass; 250 g ai/ha)	Plant response rating (0 to 100), Windgrass (windgrass; 31 g ai/ha)	Plant response rating (0 to 100), Windgrass (windgrass; 62 g ai/ha)	Plant response rating, Windgrass (windgrass; 125 g ai/ha)	Plant response rating, Windgrass (windgrass; 250 g ai/ha)	Plant response rating (0 to 100), Chickweed (chickweed; 31 g ai/ha)	Plant response rating, Chickweed (chickweed; 62 g ai/ha)	Plant response rating, Chickweed (chickweed; 125 g ai/ha)	Plant response rating, Chickweed (chickweed; 250 g ai/ha)	Plant response rating (0 to 100), Barley (winter barley; 31 g ai/ha)	Plant response rating, Barley (winter barley; 62 g ai/ha)	Plant response rating, Barley (winter barley; 125 g ai/ha)	Plant response rating, Barley (winter barley; 250 g ai/ha)	Plant response rating, Guineagrass (guineagrass; 16 g ai/ha, preemergence)	Guineagrass plant response rating (guineagrass; 125 g ai/ha, preemergence)	Plant response rating, Guineagrass (guineagrass; Preemergence, 31 g ai/ha)	Guineagrass plant response rating (guineagrass; 62 g ai/ha, Preemergence)	also measured
[O-][n+]1cc(Cl)ccc1[S+]([O-])Cc1c(C(F)(F)F)nn(CC(F)(F)F)c1Cl (stereo not drawn) [Compound 47]	0	0	0	40	0	0	95	98	0	0	0	0	0	0	10	45					
CC(Oc1c(CS(=O)(=O)c2cccc[n+]2[O-])c(C(F)(F)F)nn1C)C(F)(F)F (stereo not drawn) [Compound 82]	0		0	0	70	90	100	100	0		0	0	0		0	0	70	100	70		Plant response rating (0 to 100), Canarygrass (canarygrass; 62 g ai/ha): 0; Plant response rating (0 to 100), Chickweed (chickweed; 62 g ai/ha): 0; Plant response rating (0 to 100), Barley (winter barley; 62 g ai/ha): 0; Plant response rating, Guineagrass (guineagrass; Preemergence, 62 g ai/ha): 95
Cn1nc(C(F)(F)F)c(C[S+]([O-])c2cccc[n+]2[O-])c1OCC(F)(F)C(F)(F)F (stereo not drawn) [Compound 78]	0	0	0	0	0	0	95	100	0	0			0	0	0	0					
CCn1nc(C(F)(F)F)c(CS(=O)(=O)c2cccc[n+]2[O-])c1OCC(F)(F)F [Compound 63]																	70	100	95	100	Plant response rating, Horseweed (Canada horseweed; 16 g ai/ha, preemergence): 0; Horseweed plant response rating (Canada horseweed; 62 g ai/ha, Preemergence): 98; Horseweed plant response rating (Canada horseweed; 125 g ai/ha, preemergence): 100; Plant response rating, Horseweed (Canada horseweed; Preemergence, 31 g ai/ha): 98
CCn1nc(C(F)(F)F)c(C[S+]([O-])c2cccc[n+]2[O-])c1OCC(F)(F)F (racemic) [Compound 65]	0	20	20	25	50	90	100	100	30	40	80	100	0	20	40	40					
Cc1cc([S+]([O-])Cc2c(C(F)(F)F)nn(C)c2OCC(F)(F)F)[n+]([O-])cc1Cl (stereo not drawn) [Compound 70]																	100	100	100	100	
CC(c1c(C(F)(F)F)nn(C)c1Cl)S(=O)(=O)c1ccc(Cl)c[n+]1[O-] (racemic) [Compound 40]	0	0	0	30	45	45	85	85	0	0	0	0	0	0	0	0					
CC(Oc1c(C[S+]([O-])c2cccc[n+]2[O-])c(C(F)(F)F)nn1C)C(F)(F)F (stereo not drawn) [Compound 77]																	15	100	80	100	Plant response rating, Sowthistle (common sowthistle; 16 g ai/ha, preemergence): 0; Sowthistle plant response rating (common sowthistle; 125 g ai/ha, preemergence): 50; Plant response rating, Sowthistle (common sowthistle; Preemergence, 31 g ai/ha): 0; Plant response rating, Horseweed (Canada horseweed; 16 g ai/ha, preemergence): 0; Horseweed plant response rating (Canada horseweed; 62 g ai/ha, Preemergence): 98; Horseweed plant response rating (Canada horseweed; 125 g ai/ha, preemergence): 100; Plant response rating, Horseweed (Canada horseweed; Preemergence, 31 g ai/ha): 50
CCn1nc(C(F)(F)F)c(C(C)S(=O)(=O)c2cccc[n+]2[O-])c1OCC(F)(F)F (stereo not drawn) [Compound 69]	0	0	0	10	40	95	95	100	0	0	0	40	0	0	20	25					
Cn1nc(C(F)(F)C(F)(F)F)c(C[S+]([O-])c2cccc[n+]2[O-])c1OCC(F)(F)F (stereo not drawn) [Compound 79]	0		0	0	60	100	100	100	70		100	100	0		0	0	0	100	95	100	Plant response rating (0 to 100), Canarygrass (canarygrass; 62 g ai/ha): 0; Plant response rating (0 to 100), Chickweed (chickweed; 62 g ai/ha): 100; Plant response rating (0 to 100), Barley (winter barley; 62 g ai/ha): 0
